# PubChem BioAssay (NCI)
#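 Where inhibition never reached the appropriate level, the endpoint shown equals the highest concentration tested. Otherwise, values were interpolated linearly from a five-concentration, 48-hour dose response in 96-well plates. Definition used: TGI = concentration required for complete inhibition of growth.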 Where a SMILES comes first, the peptide text is derived from it. The star is where a group is joined. Boc = CC(C)(C)OC(=O)*
# Assays:
# Test in all cases: NCI-60 cell line screen, 48 h
# A498 renal = tested on: A498 renal
# CAKI-1 renal = tested on: CAKI-1 renal
# COLO 205 colon = tested on: COLO 205 colon
# DU-145 prostate = tested on: DU-145 prostate
# MOLT-4 leukemia = tested on: MOLT-4 leukemia
# NCI/ADR-RES ovarian = tested on: NCI/ADR-RES ovarian
# RXF 393 renal = tested on: RXF 393 renal
# SK-MEL-5 melanoma = tested on: SK-MEL-5 melanoma
# SR leukemia = tested on: SR leukemia
# TK-10 renal = tested on: TK-10 renal
# UO-31 renal = tested on: UO-31 renal
# T-47D breast = tested on: T-47D breast
SMILES,TGI (A498 renal) [µM],TGI (CAKI-1 renal) [µM],TGI (COLO 205 colon) [µM],TGI (DU-145 prostate) [µM],TGI (MOLT-4 leukemia) [µM],TGI (NCI/ADR-RES ovarian) [µM],TGI (RXF 393 renal) [µM],TGI (SK-MEL-5 melanoma) [µM],TGI (SR leukemia) [µM],TGI (TK-10 renal) [µM],TGI (UO-31 renal) [µM],TGI (T-47D breast) [µM]
C(=C\c1ccco1)/c1cccc(/C=C/c2ccco2)n1,> 50,> 50,> 50,> 50,> 50,> 50,> 50,> 50,> 50,> 50,> 50,–
COc1cc(/C=c2\sc3n(c2=O)C(c2ccc(Cl)cc2)C2=C(CCCC2C)N=3)cc(OC)c1OC (centres undefined),> 100,> 100,–,> 100,> 100,–,> 100,> 100,> 100,> 100,> 100,–
O=C(O)CN1C(=O)C(Cc2ccc(O)cc2)N=C(c2cccc(O)c2)c2ccccc21 (centres undefined),25.3,–,–,> 100,> 100,–,–,–,> 100,> 100,> 100,> 100
COc1ccc(/C=C2\CCC(C)C3=C2N=c2s/c(=C/c4cccc(Br)c4)c(=O)n2C3c2ccc(OC)c(OC)c2)cc1OC (centres undefined),> 100,> 100,–,> 100,> 100,–,> 100,> 100,> 100,> 100,–,–
CC1(C)CCC[C@]2(C)[C@H]3[C@H](C#N)c4cc(O)c(O)cc4O[C@@]3(C)CC[C@@H]12,> 10,> 10,> 10,> 10,> 10,> 10,> 10,> 10,> 10,> 10,> 10,–
CC(=O)O[C@H]1[C@H](OC(=O)CC(C)(O)CC(=O)O)C[C@]2(C)C3=C(CCC2C1(C)C)[C@]1(C)CC[C@H]([C@H]2CC[C@H](C(C)(C)O)OC2O)[C@@]1(C)[C@@H](O)C3 (some centres undefined),26.4,36.7,–,64.8,40.9,> 100,–,30.9,60.1,63.4,25.8,40.2
CC(=O)O[C@H]1C(=O)[C@@]2(C)C(C(OC(=O)c3ccccc3)C3[C@@H](O)C(OC(=O)[C@@H](O)[C@H](NC(=O)c4ccccc4)c4ccc(C(F)(F)F)cc4)C(C)=C1C3(C)C)[C@]1(OC(C)=O)CO[C@@H]1C[C@@H]2O (some centres undefined),–,> 25,> 25,–,> 25,–,> 25,> 25,> 25,> 25,> 25,–
COc1ccc(SCc2cc(OCc3ccccc3)c(OCc3ccccc3)c(OCc3ccccc3)c2)cc1,3.49,3.02,8.21,3.13,3.3,3.38,–,–,–,3.32,3.18,–
C=C1C2C[C@@H]3O[C@H]4C[C@H]5O[C@@]6(C[C@@H]7O[C@]8(C[C@H](C)[C@@H]9O[C@@H]%10CC(CO)O[C@@H]%10C[C@@H]9O8)C[C@H](C)[C@@H]7O6)C[C@H]5O[C@H]4[C@H](C)[C@H]3OC(=O)C[C@H]3CC[C@@H]4OC5[C@H]6O[C@]7(CC[C@H]8CC(=C)[C@H](CC[C@@H](C[C@H]1C)O2)O8)CC6O[C@@H]5[C@@H](O7)[C@H]4O3 (some centres undefined),> 1,> 1,0.000322,–,> 1,> 1,> 1,0.00332,> 1,> 1,> 1,–
O=C(Nc1nc(C23CC4CC(CC(C4)C2)C3)cs1)c1cc2ccccc2oc1=O,> 100,> 100,> 100,> 100,> 100,> 100,> 100,> 100,> 100,> 100,> 100,–
COCN1C(=O)[C@@H]2CCCN2C(=O)c2cc(N)ccc21,> 100,> 100,8.86,> 100,–,> 100,> 100,–,–,> 100,> 100,> 100
C=C1CCC([N+](=O)[O-])[C@](C)(N=O)CC[C@@H]2C1CC2(C)C (some centres undefined),–,> 100,60.5,> 100,> 100,82,–,28.6,> 100,76.1,31.7,–
COC(=O)C1(C)C=CC(=O)C2(C)C1C(O)C1OC3CC(c4ccoc4)C(C)=C3C1(C)C2CC(=O)O (centres undefined),> 100,> 100,> 100,> 100,> 100,> 100,–,> 100,–,> 100,> 100,> 100
COC(=O)C(Cc1c[nH]c2ccccc12)NC(=O)C(Cc1c[nH]c2ccccc12)NC(=O)C(Cc1c[nH]c2ccccc12)NC(=O)C(Cc1c[nH]c2ccccc12)NC(=O)C(Cc1c[nH]c2ccccc12)NC(=O)C(Cc1c[nH]c2ccccc12)NC(=O)C(Cc1c[nH]c2ccccc12)NC(=O)C(Cc1c[nH]c2ccccc12)NC(=O)OC(C)(C)C (centres undefined) (Boc-WWWWWWWW-OMe; configuration not given here),55.6,> 100,–,> 100,> 100,–,–,73.3,> 100,> 100,> 100,–
Cc1ccccc1S(=O)(=O)Nn1cnc2ccc(S(=O)(=O)Nc3ccc(Cl)cc3)cc2c1=O,–,> 100,> 100,> 100,> 100,> 100,–,–,> 100,> 100,> 100,–
Cc1cc(S(=O)(=O)Nc2nc3ccccc3c(=O)n2N)c(S)cc1Cl,–,> 100,> 100,> 100,> 100,83.4,–,> 100,–,> 100,–,–
COc1ccc2c(c1)CCc1c-2n(CCN2CCCCC2)c2ccc(OC)cc12,> 100,> 100,> 100,> 100,–,> 100,–,> 100,> 100,> 100,> 100,> 100
Cn1c2ccccc2c(=O)c2cccc(C(=O)NC(CCC(N)=O)C(=O)O)c21 (centres undefined),> 100,> 100,> 100,> 100,> 100,> 100,–,> 100,> 100,> 100,–,> 100
CC(=O)Nc1c(C)cc2c(nc3n2CCC3O)c1[N+](=O)[O-] (centres undefined),> 100,> 100,> 100,> 100,> 100,> 100,–,> 100,–,–,> 100,> 100
O=c1/c(=C/c2ccc(-c3ccc(Cl)cc3Cl)o2)sc2n1[C@@H](c1ccc(Cl)cc1)C=C(c1cc(F)c(Cl)cc1Cl)N=2,4.71,> 100,> 100,> 100,67.9,> 100,> 100,> 100,–,> 100,> 100,> 100
